Source: US9642922B2, “Caspase-triggered nano-aggregation probes and methods of use” (The Board of Trustees of the Leland Stanford Junior …, priority 2013, dated 2017)
Marks after values point to notes of the source that are not given here. Blank lines part the entries; values can stand above or below the compound they belong to.

Legend:
[1] = TEM of nano-aggregates after incubation with caspase-3; type: physicochemical; conditions: after caspase-3 incubation
Experimental: FIG. 7C is a digital TEM image of nano-aggregates after incubation C-SNAF (50 μM) with recombinant human caspase-3 (4.9×10^−3 U/mL) overnight at 37° C. in caspase-3 buffer; scale bar, 1 μm.
No nano-aggregation was found in either of the control probe solutions after incubation with caspase-3.

HeLa tumor xenograft = experiment: PET imaging of HeLa tumor xenograft-bearing nude mice; type: in vivo, mouse; conditions: for uptake ratio between tumor and muscle (T/M): treated tumors
Experimental: One group of animals was scanned at baseline (before treatment) and 4 days post treatment with 0.2 mg doxorubicin injected into the tumor. On the day of scanning, the animals were moved from their housing area to the PET scanner around 1 h prior to the experiment. They were constrained shortly in a tail veiner and injected intravenously, with 440±97 μCi (16±3 MBq) [^18F]C-SNAT formulation. They were anesthetized with 2% isoflurane shortly before placement in an R4 microPET scanner (Siemens Medical Solutions, USA). The anesthesia were continued with 2% isoflurane doing 5 min of acquisition. Scans using the control tracer 1-D (173±73 μCi/9±4 Mbq in 200 μL formulation) were carried out in a similar manner using two groups (one baseline and one treated) instead of the same animals at baseline and after treatment. The images were reconstructed using a standard 2D reconstruction without attenuation correction.
The reconstructed images were analyzed by making two volumes of interest (VOI), one on the tumor and one located on the left shoulder corresponding to muscle/bone mixture. The percent of injected dose per gram tissue (% ID/g) was calculated in each VOI and the ratio between tumor and muscle uptake was calculated based on this uptake (uptake in tumor/uptake in muscle region). The effect of treatment was calculated as the difference in uptake of [^18F]C-SNAT at baseline and after treatment.
Evaluation of activatable PET tracer 1 and control tracer 1-D for PET imaging of caspase-3 activity in vivo was performed in HeLa tumor xenograft-bearing nude mice. Tumors were implanted and grown for a minimum of 10 d before receiving intratumoral injection of 0.2 mg DOX (20 μL). 1 or 1-D (5-15 MBq/135-405 μCi) was injected through the tail vein for PET imaging 4 d post treatment. Static PET scans (5 min) were performed 65, 125 and 182 mins post tracer injection.

[2] = Ex vivo biodistribution of [18F]C-SNAT; type: in vivo, mouse; conditions: for Ratio of % ID/g over muscle ± SEM: 2 h post injection
Experimental: Mice were administered [^18F]C-SNAT (100-200 μCi/3.7-7.4 MBq in 100-200 μL of 0.9% saline solution) via tail vein injection and then euthanized by bilateral thoracotomy under anesthesia at 2 h after injection of tracer (n=3). All samples (tumor, heart, whole brain, gallbladder, kidney, liver, lung, muscle, bone, spleen, whole blood) were removed quickly following euthanasia and placed in pre-weighed test tubes. Standard solutions of the tracer were prepared by diluting approximately 100 μCi (3.7 MBq) tracer in 100 mL of water, of which 1 mL of aliquots were used for reference counting.
The test tubes containing tissue samples were weighed and the radioactivity was measured by an automated gamma counter (Cobra Model 5002, Packard, USA) along with the standard solutions.

caspase-3 = target: T1, caspase-3 (Homo sapiens, UniProt P42574); experiment: Incubation of PET tracer with recombinant caspase-3, radio-HPLC; type: biochemical; conditions: within 1 h, in buffer
T1 sequence (P42574 29-175 limits assumed): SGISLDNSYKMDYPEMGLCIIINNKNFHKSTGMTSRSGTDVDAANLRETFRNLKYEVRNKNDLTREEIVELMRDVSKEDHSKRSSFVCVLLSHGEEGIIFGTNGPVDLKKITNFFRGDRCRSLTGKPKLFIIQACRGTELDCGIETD
T1 sequence (P42574 176-277 limits assumed): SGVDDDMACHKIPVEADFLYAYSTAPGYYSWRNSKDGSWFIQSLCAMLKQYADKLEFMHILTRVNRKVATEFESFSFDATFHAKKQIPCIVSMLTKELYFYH
Experimental: To evaluate the activatable PET tracer 1 for caspase-3 detection, it was first incubated with recombinant caspase-3 in buffer.

[3] = Stability of PET tracers in mouse serum; type: in vitro ADME; conditions: 1 h incubation, 37° C.
Experimental: To the mouse serum (500 μL) 100 μL (approximately 100 μCi/3.7 MBq) of radioactive sample was added and the mixture was incubated at 37° C. At each time point, 100 μL of sample was taken and after mixing with 100 μL of acetonitrile was centrifuged at 9,400×g for 5 min. The resulting supernatants were collected, and an aliquot of each supernatant (100 μL) was diluted with 100 μL of water and analyzed via the same HPLC method used for quality control (fitted with a highly sensitive positron detector for radioactivity). The percent ratio of intact compound to the total radioactivity on the HPLC chromatogram was calculated as %=[(peak area for intact compound)/(total peak area)]×100.

apoptotic HeLa cells = experiment: Cell uptake of tracer 1 in HeLa cells; type: cell-based, human
Experimental: HeLa cells (cultured in DMEM with 10% FBS and 1% ampicillin) were grown in a 6 well plate culture dish for 24 h. The wells were then divided into 3 groups. Group 1 wells were cultured normally for 24 h, then the medium was changed and the cells were cultured for another 24 h. Group 2 and 3 wells were cultured with 2 μM doxorubicin (DOX) for 24 h, then the medium was changed and the cells were cultured for another 24 h, group 2 in normal culture medium without doxorubicin and group 3 in normal culture medium without doxorubicin but together with 50 μM Z-VAD-FMK, a caspase-3 inhibitor.
After 48 h, 10 μCi (0.37 MBq) of 1 were added to all three groups and incubated for additional 4 h. Then the medium was removed, the cells washed 3 times with phosphate buffered saline, and 1 mL of Tryp-LETM Express was added and the cells were left for 1-2 min to allow to detach. The cell/Tryp-LE solution was counted in a gamma counter and the radioactivity was normalized to the protein concentration (determined by comparison with BSA standards in each vial.

Membrane Potential = conditions: cited from earlier work

average diameter of nano-aggregates (TEM) [1]: 174±44 nm
Compound: CC[N+]1=C(C=CC=CC=C2N(CCCCCC(=O)NCCCCC3NC(=O)C4CSC(=N4)c4ccc5cc(ccc5n4)OCCCNC(=O)C4CSC(=N4)c4nc5ccc(cc5s4)NC3=O)c3ccc4c(S(=O)(=O)O)cc(S(=O)(=O)O)cc4c3C2(C)C)C(C)(C)c2c1ccc1c(S(=O)(=O)[O-])cc(S(=O)(=O)O)cc21 (stereo not shown) [C-SNAF-cycl]

Ratio of % ID/g over muscle ± SEM ([2]; Bone): 2.4 ± 1.5
Ratio of % ID/g over muscle ± SEM ([2]; Brain): 0.5 ± 0.2
Ratio of % ID/g over muscle ± SEM ([2]; Heart): 4.5 ± 2.4
Ratio of % ID/g over muscle ± SEM ([2]; Kidney): 124.2 ± 46.6
Ratio of % ID/g over muscle ± SEM ([2]; Liver): 22.9 ± 9.7
Ratio of % ID/g over muscle ± SEM ([2]; Lung): 4.1 ± 1.8
Ratio of % ID/g over muscle ± SEM ([2]; Muscle): 1.0 ± 0.5
Ratio of % ID/g over muscle ± SEM ([2]; Plasma): 4.0 ± 1.8
Ratio of % ID/g over muscle ± SEM ([2]; Spleen): 1.7 ± 0.7
Ratio of % ID/g over muscle ± SEM ([2]; Tumor): 5.6 ± 2.3
Ratio of % ID/g over muscle ± SEM ([2]; Whole Blood): 5.1 ± 2.4
crossing of the blood-brain barrier ([2]; low uptake in brain tissue, 120 minutes post injection): could not cross the blood-brain barrier
tracer cyclized by recombinant caspase-3 (caspase-3): 90%
intact tracer in mouse serum [3]: 60%
Compound: CCSSCC(NC(=O)[C@H](CC(=O)O)NC(=O)[C@@H](NC(=O)[C@H](CCC(=O)O)NC(=O)[C@H](CC(=O)O)NC(C)=O)C(C)C)C(=O)NC(Cc1cn(CCOCC[18F])nn1)C(=O)Nc1ccc2nc(C3=N[C@@H](C(=O)NCCCOc4ccc5nc(C#N)ccc5c4)CS3)sc2c1 (stereo partly shown) [[^18F]C-SNAT]
uptake difference between baseline and treated (HeLa tumor xenograft; 65 min): 0.36±0.15 % ID/g
uptake difference between baseline and treated (HeLa tumor xenograft; 182 min): 0.63±0.11 % ID/g
uptake in tumor (HeLa tumor xenograft; DOX treated, 65 min): 1.17±0.17 % ID/g
uptake in tumor (HeLa tumor xenograft; DOX treated, 182 min): 1.29±0.07 % ID/g
uptake in tumor (HeLa tumor xenograft; baseline, 65 min): 0.81±0.28 % ID/g
uptake in tumor (HeLa tumor xenograft; baseline, 182 min): 0.67±0.24 % ID/g
Target/Background (HeLa tumor xenograft; maximum value at the apoptotic tissue): 7.0
time course of uptake in apoptotic tumors (HeLa tumor xenograft; mouse, in vivo): trend of increasing uptake over times
% ID/g at target site (HeLa tumor xenograft; mouse, tumor treatment, PET imaging): 1.3 ± 0.1 % ID/g
Treated/Untreated (HeLa tumor xenograft; target uptake ratio between pre and post treatment in same animal): 1.9^b
uptake ratio between tumor and muscle (T/M) (HeLa tumor xenograft; 65 min): 3.30 fold
uptake ratio between tumor and muscle (T/M) (HeLa tumor xenograft; 182 min): 7.00 fold
retained 18F activity in Dox-treated cells with caspase-3 inhibitor (apoptotic HeLa cells; Dox 2 μM plus Z-VAD-fmk): 1.3 fold
retained 18F activity in Dox-treated versus non-treated cells (apoptotic HeLa cells; Dox 2 μM, 4 h tracer incubation): 2.2 fold

Compound: CC(CCCCC[18F])(C(=O)O)C(=O)O [[^18F]ML-10]
% ID/g at target site (Membrane Potential; PET imaging, cerebral stroke): 0.3 ± 0.1 % ID/g
Treated/Untreated (Membrane Potential; stroke and non-stroke region in same animal): 2.3^f
